Laboratory results: ChEMBL document CHEMBL4507309 (2021)

Key:
[1] = molecular target: 5-hydroxytryptamine receptor 1A (Homo sapiens, UniProt P08908); assay: GPCRScan assay: inhibition of 5-HT1A; set-up: radioligand conc. used [nm] 0.5 – 1.0, parental cells stable CHO
[2] = molecular target: T1, 5-hydroxytryptamine receptor 1B (Homo sapiens, UniProt P28222); assay: GPCRScan assay: inhibition of 5-HT1B; set-up: radioligand conc. used [nm] 0.6 – 1.5, parental cells stable HEK
[3] = molecular target: T2, 5-hydroxytryptamine receptor 1D (Homo sapiens, UniProt P28221); assay: GPCRScan assay: inhibition of 5-HT1D; set-up: radioligand conc. used [nm] 1.0 – 2.0, parental cells HEKT
[4] = molecular target: T3, 5-hydroxytryptamine receptor 2A (Homo sapiens, UniProt P28223); assay: GPCRScan assay: inhibition of 5-HT2A; set-up: radioligand conc. used [nm] 1.2 – 2.4, parental cells HEKT
[5] = molecular target: T4, 5-hydroxytryptamine receptor 2B (Homo sapiens, UniProt P41595); assay: GPCRScan assay: inhibition of 5-HT2B; set-up: radioligand conc. used [nm] 1.0 – 2.0, parental cells stable HEK
[6] = molecular target: 5-hydroxytryptamine receptor 2C (Homo sapiens, UniProt P28335); assay: GPCRScan assay: inhibition of 5-HT2C; set-up: radioligand conc. used [nm] 1.0 – 2.5, parental cells HEK T
[7] = molecular target: 5-hydroxytryptamine receptor 3A (Homo sapiens, UniProt P46098); assay: GPCRScan assay: inhibition of 5-HT3; set-up: radioligand conc. used [nm] 1.0 – 2.0, parental cells HEKT
[8] = molecular target: T5, 5-hydroxytryptamine receptor 5A (Homo sapiens, UniProt P47898); assay: GPCRScan assay: inhibition of 5-HT5A; set-up: radioligand conc. used [nm] 2.0 - 3.3, parental cells Flp-In CHO
[9] = molecular target: T6, 5-hydroxytryptamine receptor 6 (Homo sapiens, UniProt P50406); assay: GPCRScan assay: inhibition of 5-HT6; set-up: radioligand conc. used [nm] 2.0 – 4.0, parental cells stable HEK
[10] = molecular target: T7, 5-hydroxytryptamine receptor 7 (Homo sapiens, UniProt P34969); assay: GPCRScan assay: inhibition of 5-HT7A; set-up: radioligand conc. used [nm] 5.0 – 6.0, parental cells Stable HEK
[11] = molecular target: T8, D(1A) dopamine receptor (Homo sapiens, UniProt P21728); assay: GPCRScan assay: inhibition of D1; set-up: radioligand conc. used [nm] 0.6 – 1.3, parental cells HEKT
[12] = molecular target: T9, Sodium-dependent dopamine transporter (Homo sapiens, UniProt Q01959); assay: GPCRScan assay: inhibition of DAT; set-up: radioligand conc. used [nm] 3.6 – 16.0, parental cells stable HEK
[13] = molecular target: T10, Kappa-type opioid receptor (Homo sapiens, UniProt P41145); assay: GPCRScan assay: inhibition of KOR; set-up: radioligand conc. used [nm] 0.6 – 1.2, parental cells stable HEK
[14] = molecular target: T11, Histamine H1 receptor (Homo sapiens, UniProt P35367); assay: GPCRScan assay: inhibition of H1; set-up: radioligand conc. used [nm] 0.6 – 2.0, parental cells stable HEK
[15] = molecular target: T12, Histamine H2 receptor (Homo sapiens, UniProt P25021); assay: GPCRScan assay: inhibition of H2; set-up: radioligand conc. used [nm] 0.02 – 0.05, parental cells Stable HEK
[16] = molecular target: Alpha-2B adrenergic receptor (Homo sapiens, UniProt P18089); assay: GPCRScan assay: inhibition of Alpha2B; set-up: radioligand conc. used [nm] 1.5 – 2.0, parental cells HEKT
[17] = molecular target: Muscarinic acetylcholine receptor M1 (Homo sapiens, UniProt P11229); assay: GPCRScan assay: inhibition of M1; set-up: radioligand conc. used [nm] 0.3 – 1.2, parental cells stable CHO
[18] = molecular target: Muscarinic acetylcholine receptor M2 (Homo sapiens, UniProt P08172); assay: GPCRScan assay: inhibition of M2; set-up: radioligand conc. used [nm] 0.2 – 1.0, parental cells stable CHO
[19] = molecular target: T13, Sigma intracellular receptor 2 (Homo sapiens, UniProt Q5BJF2); assay: GPCRScan assay: inhibition of Sigma 2; set-up: radioligand conc. used [nm] 5.0, parental cells HEKT
[20] = molecular target: Glutamate [NMDA] receptor (Homo sapiens) (UniProt Q05586+Q12879+Q13224+O15399+O60391+Q14957+Q8TCU5); assay: (§1) GPCRScan assay: inhibition of NMDA; assay type: protein-complex assay; set-up: radioligand conc. used [nm] 1.4 – 13.0; conditions: Compound concentration 10.0 uM
[21] = molecular target: Glutamate [NMDA] receptor; assay: as §1; assay type: protein-complex assay, Homo sapiens; set-up: radioligand conc. used [nm] 1.4 – 13.0
[22] = molecular target: 5-hydroxytryptamine receptor 4 (Homo sapiens, UniProt Q13639); assay: GPCRScan assay: inhibition of 5-HT4; set-up: radioligand conc. used [nm] 0.5 – 2.0, parental cells HEK T
[23] = molecular target: 5-hydroxytryptamine receptor 1A (Homo sapiens) (UniProt P08908); conditions: Compound concentration 10.0 uM
[24] = molecular target: T1, 5-hydroxytryptamine receptor 1B; conditions: Compound concentration 10.0 uM
[25] = molecular target: T2, 5-hydroxytryptamine receptor 1D; conditions: Compound concentration 10.0 uM
[26] = molecular target: T3, 5-hydroxytryptamine receptor 2A; conditions: Compound concentration 10.0 uM
[27] = molecular target: T4, 5-hydroxytryptamine receptor 2B; conditions: Compound concentration 10.0 uM
[28] = molecular target: 5-hydroxytryptamine receptor 2C (Homo sapiens) (UniProt P28335); conditions: Compound concentration 10.0 uM
[29] = molecular target: 5-hydroxytryptamine receptor 3A (Homo sapiens) (UniProt P46098); conditions: Compound concentration 10.0 uM
[30] = molecular target: T5, 5-hydroxytryptamine receptor 5A; conditions: Compound concentration 10.0 uM
[31] = molecular target: T6, 5-hydroxytryptamine receptor 6; conditions: Compound concentration 10.0 uM
[32] = molecular target: T7, 5-hydroxytryptamine receptor 7; conditions: Compound concentration 10.0 uM
[33] = molecular target: T8, D(1A) dopamine receptor; conditions: Compound concentration 10.0 uM
[34] = molecular target: D(2) dopamine receptor (Homo sapiens) (UniProt P14416); conditions: Compound concentration 10.0 uM
[35] = molecular target: D(3) dopamine receptor (Homo sapiens) (UniProt P35462); conditions: Compound concentration 10.0 uM
[36] = molecular target: D(1B) dopamine receptor (Homo sapiens) (UniProt P21918); conditions: Compound concentration 10.0 uM
[37] = molecular target: Sodium-dependent serotonin transporter (Homo sapiens) (UniProt P31645); conditions: Compound concentration 10.0 uM
[38] = molecular target: Sodium-dependent noradrenaline transporter (Homo sapiens) (UniProt P23975); conditions: Compound concentration 10.0 uM
[39] = molecular target: T9, Sodium-dependent dopamine transporter; conditions: Compound concentration 10.0 uM
[40] = molecular target: Mu-type opioid receptor (Homo sapiens) (UniProt P35372); conditions: Compound concentration 10.0 uM
[41] = molecular target: Delta-type opioid receptor (Homo sapiens) (UniProt P41143); conditions: Compound concentration 10.0 uM
[42] = molecular target: T10, Kappa-type opioid receptor; conditions: Compound concentration 10.0 uM
[43] = molecular target: T14, GABA-A receptor; anion channel (Rattus norvegicus) (UniProt O09028+P15431+P18506+P18508+P19969+P20236+P23574+P23576+P28471+P28473+P30191+P62813+P63079+P63138+Q91ZM7+Q9ES14); conditions: Compound concentration 10.0 uM
[44] = molecular target: T11, Histamine H1 receptor; conditions: Compound concentration 10.0 uM
[45] = molecular target: T12, Histamine H2 receptor; conditions: Compound concentration 10.0 uM
[46] = molecular target: Histamine H4 receptor (Homo sapiens) (UniProt Q9H3N8); conditions: Compound concentration 10.0 uM
[47] = molecular target: Alpha-1A adrenergic receptor (Homo sapiens) (UniProt P35348); conditions: Compound concentration 10.0 uM
[48] = molecular target: Alpha-1B adrenergic receptor (Homo sapiens) (UniProt P35368); conditions: Compound concentration 10.0 uM
[49] = molecular target: Alpha-2A adrenergic receptor (Homo sapiens) (UniProt P08913); conditions: Compound concentration 10.0 uM
[50] = molecular target: Alpha-2B adrenergic receptor (Homo sapiens) (UniProt P18089); conditions: Compound concentration 10.0 uM
[51] = molecular target: Alpha-2C adrenergic receptor (Homo sapiens) (UniProt P18825); conditions: Compound concentration 10.0 uM
[52] = molecular target: Beta-1 adrenergic receptor (Homo sapiens) (UniProt P08588); conditions: Compound concentration 10.0 uM
[53] = molecular target: Beta-2 adrenergic receptor (Homo sapiens) (UniProt P07550); conditions: Compound concentration 10.0 uM
[54] = molecular target: Muscarinic acetylcholine receptor M1 (Homo sapiens) (UniProt P11229); conditions: Compound concentration 10.0 uM
[55] = molecular target: Muscarinic acetylcholine receptor M2 (Homo sapiens) (UniProt P08172); conditions: Compound concentration 10.0 uM
[56] = molecular target: Muscarinic acetylcholine receptor M3 (Homo sapiens) (UniProt P20309); conditions: Compound concentration 10.0 uM
[57] = molecular target: Muscarinic acetylcholine receptor M5 (Homo sapiens) (UniProt P08912); conditions: Compound concentration 10.0 uM
[58] = molecular target: Beta-3 adrenergic receptor (Homo sapiens) (UniProt P13945); conditions: Compound concentration 10.0 uM
[59] = molecular target: T14, GABA-A receptor; anion channel (Rattus norvegicus); conditions: Compound concentration 10.0 uM; remark: listed apart in the source
[60] = species on record: Rattus norvegicus; conditions: Compound concentration 10.0 uM
[61] = molecular target: Alpha-1D adrenergic receptor (Homo sapiens) (UniProt P25100); conditions: Compound concentration 10.0 uM
[62] = molecular target: T13, Sigma intracellular receptor 2; conditions: Compound concentration 10.0 uM
[63] = molecular target: Sigma non-opioid intracellular receptor 1 (Homo sapiens) (UniProt Q99720); conditions: Compound concentration 10.0 uM

T9 sequence (Q01959 whole entry): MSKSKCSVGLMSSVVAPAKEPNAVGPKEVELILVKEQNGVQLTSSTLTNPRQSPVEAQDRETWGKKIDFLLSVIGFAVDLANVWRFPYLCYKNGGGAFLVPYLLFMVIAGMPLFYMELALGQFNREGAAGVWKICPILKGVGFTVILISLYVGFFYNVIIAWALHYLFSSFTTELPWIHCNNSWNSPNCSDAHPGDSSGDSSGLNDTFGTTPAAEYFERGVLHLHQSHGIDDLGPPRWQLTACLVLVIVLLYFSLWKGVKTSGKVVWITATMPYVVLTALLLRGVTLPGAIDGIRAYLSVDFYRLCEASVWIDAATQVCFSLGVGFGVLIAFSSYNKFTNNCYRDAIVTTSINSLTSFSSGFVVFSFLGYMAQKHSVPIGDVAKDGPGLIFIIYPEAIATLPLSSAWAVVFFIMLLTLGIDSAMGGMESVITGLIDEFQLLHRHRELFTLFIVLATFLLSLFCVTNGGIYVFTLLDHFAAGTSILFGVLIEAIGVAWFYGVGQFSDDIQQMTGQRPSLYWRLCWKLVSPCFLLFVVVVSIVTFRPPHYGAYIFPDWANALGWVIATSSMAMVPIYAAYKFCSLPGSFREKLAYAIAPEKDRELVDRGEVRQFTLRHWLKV
T11 sequence (P35367 whole entry): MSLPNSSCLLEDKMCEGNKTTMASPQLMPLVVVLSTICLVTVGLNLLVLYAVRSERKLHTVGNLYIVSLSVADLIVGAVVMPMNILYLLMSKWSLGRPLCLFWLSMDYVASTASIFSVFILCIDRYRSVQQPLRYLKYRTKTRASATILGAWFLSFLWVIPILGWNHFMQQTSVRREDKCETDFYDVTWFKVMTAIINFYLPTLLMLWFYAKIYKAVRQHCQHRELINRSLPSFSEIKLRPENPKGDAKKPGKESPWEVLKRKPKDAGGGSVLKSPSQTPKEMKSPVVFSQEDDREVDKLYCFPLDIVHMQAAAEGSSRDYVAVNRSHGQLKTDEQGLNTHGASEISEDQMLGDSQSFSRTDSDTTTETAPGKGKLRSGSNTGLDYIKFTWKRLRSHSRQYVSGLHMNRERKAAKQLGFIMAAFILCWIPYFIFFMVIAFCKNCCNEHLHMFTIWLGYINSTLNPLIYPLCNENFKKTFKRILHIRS
T4 sequence (P41595 whole entry): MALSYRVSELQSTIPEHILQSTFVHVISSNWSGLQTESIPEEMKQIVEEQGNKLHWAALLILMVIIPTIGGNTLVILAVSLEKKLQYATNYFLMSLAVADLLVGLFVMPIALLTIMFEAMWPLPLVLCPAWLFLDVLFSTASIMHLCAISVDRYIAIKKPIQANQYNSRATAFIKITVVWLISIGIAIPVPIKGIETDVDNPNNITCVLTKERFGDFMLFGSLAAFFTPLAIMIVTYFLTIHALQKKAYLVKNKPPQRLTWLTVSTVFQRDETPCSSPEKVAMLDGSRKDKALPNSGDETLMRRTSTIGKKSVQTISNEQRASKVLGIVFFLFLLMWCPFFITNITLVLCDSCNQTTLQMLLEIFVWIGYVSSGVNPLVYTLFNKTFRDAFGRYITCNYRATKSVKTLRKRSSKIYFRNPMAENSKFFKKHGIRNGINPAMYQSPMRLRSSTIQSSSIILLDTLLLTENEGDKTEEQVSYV
T12 sequence (P25021 whole entry): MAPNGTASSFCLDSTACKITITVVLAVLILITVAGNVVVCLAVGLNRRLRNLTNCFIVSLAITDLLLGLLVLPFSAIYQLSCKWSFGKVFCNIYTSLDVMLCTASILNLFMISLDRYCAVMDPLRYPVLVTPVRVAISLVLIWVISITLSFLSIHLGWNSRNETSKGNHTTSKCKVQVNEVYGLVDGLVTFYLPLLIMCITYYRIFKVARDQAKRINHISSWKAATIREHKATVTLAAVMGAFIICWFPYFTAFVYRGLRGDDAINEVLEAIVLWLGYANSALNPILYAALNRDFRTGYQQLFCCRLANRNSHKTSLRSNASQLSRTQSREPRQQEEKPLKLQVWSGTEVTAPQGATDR
T2 sequence (P28221 whole entry): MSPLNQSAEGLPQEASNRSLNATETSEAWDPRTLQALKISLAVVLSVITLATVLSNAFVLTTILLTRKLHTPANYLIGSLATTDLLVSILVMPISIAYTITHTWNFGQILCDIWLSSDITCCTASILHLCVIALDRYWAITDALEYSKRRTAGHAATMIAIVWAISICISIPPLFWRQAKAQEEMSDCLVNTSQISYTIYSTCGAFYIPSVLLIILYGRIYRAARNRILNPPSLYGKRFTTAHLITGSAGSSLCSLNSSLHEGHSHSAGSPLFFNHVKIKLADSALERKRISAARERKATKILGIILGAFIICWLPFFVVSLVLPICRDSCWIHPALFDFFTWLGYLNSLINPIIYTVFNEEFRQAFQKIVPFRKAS
T1 sequence (P28222 whole entry): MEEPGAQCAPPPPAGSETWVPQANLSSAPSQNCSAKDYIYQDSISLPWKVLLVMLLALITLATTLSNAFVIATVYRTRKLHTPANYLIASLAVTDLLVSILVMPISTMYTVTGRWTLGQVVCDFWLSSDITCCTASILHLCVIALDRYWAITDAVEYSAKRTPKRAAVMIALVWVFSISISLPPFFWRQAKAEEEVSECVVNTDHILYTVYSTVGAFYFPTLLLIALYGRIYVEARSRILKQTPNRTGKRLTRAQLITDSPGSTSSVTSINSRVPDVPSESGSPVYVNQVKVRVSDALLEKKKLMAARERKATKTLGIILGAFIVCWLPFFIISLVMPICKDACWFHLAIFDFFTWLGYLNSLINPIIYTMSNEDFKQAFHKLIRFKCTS
T10 sequence (P41145 whole entry): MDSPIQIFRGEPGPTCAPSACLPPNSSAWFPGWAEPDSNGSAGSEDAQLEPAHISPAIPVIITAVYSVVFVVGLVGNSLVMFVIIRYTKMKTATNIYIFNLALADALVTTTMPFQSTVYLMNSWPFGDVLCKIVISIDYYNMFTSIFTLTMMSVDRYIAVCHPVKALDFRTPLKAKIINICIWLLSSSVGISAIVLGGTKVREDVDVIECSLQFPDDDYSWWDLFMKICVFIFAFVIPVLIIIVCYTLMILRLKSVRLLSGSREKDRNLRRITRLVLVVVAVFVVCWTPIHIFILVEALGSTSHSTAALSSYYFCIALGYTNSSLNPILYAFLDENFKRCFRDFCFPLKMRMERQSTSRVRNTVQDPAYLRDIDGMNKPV
T5 sequence (P47898 whole entry): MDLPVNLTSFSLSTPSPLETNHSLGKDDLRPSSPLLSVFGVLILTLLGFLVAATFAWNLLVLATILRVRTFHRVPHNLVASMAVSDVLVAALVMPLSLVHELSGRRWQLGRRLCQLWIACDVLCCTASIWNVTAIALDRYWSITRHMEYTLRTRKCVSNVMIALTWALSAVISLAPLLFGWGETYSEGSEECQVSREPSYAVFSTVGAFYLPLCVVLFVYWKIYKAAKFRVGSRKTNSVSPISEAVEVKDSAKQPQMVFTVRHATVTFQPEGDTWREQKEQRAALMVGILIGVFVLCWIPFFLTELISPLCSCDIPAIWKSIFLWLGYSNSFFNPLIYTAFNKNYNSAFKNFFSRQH
Sequence of 5-hydroxytryptamine receptor 3A (P46098 whole entry): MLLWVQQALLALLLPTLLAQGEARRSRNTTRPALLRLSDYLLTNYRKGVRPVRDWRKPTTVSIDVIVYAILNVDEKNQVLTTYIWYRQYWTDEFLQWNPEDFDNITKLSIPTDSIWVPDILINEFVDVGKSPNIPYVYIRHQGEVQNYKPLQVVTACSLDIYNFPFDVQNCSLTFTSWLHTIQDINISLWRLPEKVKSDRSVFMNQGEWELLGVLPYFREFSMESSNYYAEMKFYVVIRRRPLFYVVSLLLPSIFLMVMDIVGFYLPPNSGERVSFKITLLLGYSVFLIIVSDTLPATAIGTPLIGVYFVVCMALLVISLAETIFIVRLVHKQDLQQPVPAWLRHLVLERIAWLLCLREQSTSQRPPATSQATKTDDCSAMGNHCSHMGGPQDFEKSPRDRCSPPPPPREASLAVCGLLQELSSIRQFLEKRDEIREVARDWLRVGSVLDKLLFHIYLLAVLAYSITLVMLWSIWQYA
T8 sequence (P21728 whole entry): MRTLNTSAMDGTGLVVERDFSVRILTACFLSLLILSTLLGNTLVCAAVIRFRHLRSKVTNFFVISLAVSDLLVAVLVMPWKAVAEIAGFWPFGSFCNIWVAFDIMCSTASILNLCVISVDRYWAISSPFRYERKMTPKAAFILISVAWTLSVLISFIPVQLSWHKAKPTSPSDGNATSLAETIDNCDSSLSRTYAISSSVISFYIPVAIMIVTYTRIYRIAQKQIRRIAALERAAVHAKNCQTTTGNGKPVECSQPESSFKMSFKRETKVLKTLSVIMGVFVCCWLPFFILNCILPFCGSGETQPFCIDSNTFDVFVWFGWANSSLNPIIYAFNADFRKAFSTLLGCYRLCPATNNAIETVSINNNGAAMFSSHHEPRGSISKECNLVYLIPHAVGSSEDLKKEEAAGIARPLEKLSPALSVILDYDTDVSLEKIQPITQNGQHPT
T3 sequence (P28223 whole entry): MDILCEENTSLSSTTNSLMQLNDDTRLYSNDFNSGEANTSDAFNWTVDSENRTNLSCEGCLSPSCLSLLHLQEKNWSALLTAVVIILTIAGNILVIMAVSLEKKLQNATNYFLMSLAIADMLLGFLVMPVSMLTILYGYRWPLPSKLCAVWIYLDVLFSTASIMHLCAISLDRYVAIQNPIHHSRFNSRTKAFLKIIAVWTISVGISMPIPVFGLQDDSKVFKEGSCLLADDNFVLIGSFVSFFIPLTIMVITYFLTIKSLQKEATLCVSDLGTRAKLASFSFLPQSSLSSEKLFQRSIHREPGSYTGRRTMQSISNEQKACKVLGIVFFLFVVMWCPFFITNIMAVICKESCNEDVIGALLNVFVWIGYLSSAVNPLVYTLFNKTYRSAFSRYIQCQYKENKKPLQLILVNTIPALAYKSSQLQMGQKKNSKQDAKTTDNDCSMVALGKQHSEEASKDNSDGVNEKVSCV
Sequence of 5-hydroxytryptamine receptor 3A (Homo sapiens) (P46098 whole entry): as the sequence (P46098 whole entry) above

Compound `Cc1ccc2nc(CNCCCOc3ccccc3)cc(O)c2c1` [UCSF924] has a Ki ([1]; read-out: Ki) of 0.223 µM, a Ki ([1]; read-out: pKi (converted)) of 0.214 µM and a Ki ([2]; read-out: Ki) of 3.41 µM. For the same compound, the Ki ([2]; read-out: pKi (converted)) was 3.31 µM, the Ki ([3]; read-out: Ki) was 3.25 µM and the Ki ([3]; read-out: pKi (converted)) was 3.14 µM. It also gave a Ki [4] of 3.28 µM, a Ki ([5]; read-out: Ki) of 0.237 µM and a Ki ([5]; read-out: pKi (converted)) of 0.224 µM. It also gave a Ki [6] of 5.55 µM, a Ki ([7]; read-out: Ki) of 3.99 µM and a Ki ([7]; read-out: pKi (converted)) of 3.72 µM. It also gave a Ki ([8]; read-out: Ki) of 5.82 µM, a Ki ([8]; read-out: pKi (converted)) of 5.62 µM and a Ki [9] of 6.68 µM. It also gave a Ki [10] of 2.08 µM, a Ki [11] of 3.42 µM and a Ki ([12]; read-out: Ki) of 2.12 µM. It also gave a Ki ([12]; read-out: pKi (converted)) of 1.62 µM, a Ki ([13]; read-out: Ki) of 2.31 µM and a Ki ([13]; read-out: pKi (converted)) of 2.19 µM. The Ki ([14]; read-out: Ki) was 4.55 µM, the Ki ([14]; read-out: pKi (converted)) was 4.68 µM and the Ki ([15]; read-out: Ki) was 1.91 µM. For the same compound, the Ki ([15]; read-out: pKi (converted)) was 1.78 µM, the Ki ([16]; read-out: Ki) was 3.04 µM and the Ki ([16]; read-out: pKi (converted)) was 2.57 µM. It also gave a Ki [17] of 4.05 µM, a Ki [18] of 4.43 µM and a Ki [19] of 1.89 µM. The inhibition [20] was 0%, the Ki [21] was 1 µM and the Ki [22] was 6.69 µM. For the same compound, the inhibition ([22]; Compound concentration 10.0 uM) was 0%, the inhibition [23] was 72.1% and the inhibition [24] was 17.7%. The inhibition [25] was 58.6%, the inhibition [26] was 19.9% and the inhibition [27] was 80%. It also gave an inhibition [28] of 31.7%, an inhibition [29] of 55% and an inhibition [30] of 28.8%. It also gave an inhibition [31] of 23%, an inhibition [32] of 60% and an inhibition [33] of 3.15%. For the same compound, the inhibition [34] was 8.56%, the inhibition [35] was 5.75% and the inhibition [36] was 16.7%. For the same compound, the inhibition [37] was 35.4%, the inhibition [38] was 26.2% and the inhibition [39] was 52.1%. It also gave an inhibition [40] of 39.7%, an inhibition [41] of 22.5% and an inhibition [42] of 48.4%. For the same compound, the inhibition [43] was 1.68%, the inhibition [44] was 25.5% and the inhibition [45] was 24.8%. The inhibition [46] was 0.51%, the inhibition [47] was 23% and the inhibition [48] was 16.5%. It also gave an inhibition [49] of 17.6%, an inhibition [50] of 21.8% and an inhibition [51] of 44.7%. For the same compound, the inhibition [52] was 18.8%, the inhibition [53] was 33.3% and the inhibition [54] was 12.4%. For the same compound, the inhibition [55] was 22%, the inhibition [56] was -3.52% and the inhibition [57] was 15.5%. For the same compound, the inhibition [58] was 11.6%, the inhibition [59] was 4.11% and the inhibition [60] was 8.58%. It also gave an inhibition [61] of 25.4%, an inhibition [62] of 50.3% and an inhibition [63] of 3.82%.
